For assay [1], the target named is T1, GHSR1a (Homo sapiens, UniProt Q92847).
T1 construct: expressed in transfected cells; host or cells: HEK293
Nature of the assay: Calcium FLIPR assay, GHSR-1a antagonism (reduction of ghrelin response). The format is cell-based. The note with it: HEK293/GHSR1a cells, ghrelin 10 nM. The method, boiled down:
(§1)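 Relative fluorescence read-out (FLIPR) of intracellular calcium in HEK293/GHSR1a cells. For antagonist mode, compound and 10 nM ghrelin were co-added at t=20 sec, and inhibition of the ghrelin response over 2 minutes gave IC50. Agonist mode: compound alone at t=20 sec, response tracked 2 minutes; EC50 from dose-response.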

Assay [2] deals with T1, GHSR1a. Nature of the assay: Calcium FLIPR assay, GHSR-1a agonism. The note with it: HEK293/GHSR1a cells. The format is cell-based. Further details: Emax: unit not given here. Summed up: as §1

SMILES strings stand for the structures. Where only a bound is given, the exact number is not on record here.

T1 sequence (Q92847 whole entry): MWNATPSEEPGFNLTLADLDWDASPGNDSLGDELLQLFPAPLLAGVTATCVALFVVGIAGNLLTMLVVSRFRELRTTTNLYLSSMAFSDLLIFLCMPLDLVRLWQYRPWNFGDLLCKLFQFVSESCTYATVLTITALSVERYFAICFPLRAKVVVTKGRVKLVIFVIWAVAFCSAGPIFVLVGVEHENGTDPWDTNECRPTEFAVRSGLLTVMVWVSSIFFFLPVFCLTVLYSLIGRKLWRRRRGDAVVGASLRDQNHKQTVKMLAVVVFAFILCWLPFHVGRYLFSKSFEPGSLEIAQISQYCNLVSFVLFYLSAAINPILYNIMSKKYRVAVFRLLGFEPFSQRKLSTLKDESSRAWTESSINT

As for `COCCc1cncc(-c2ccc(C(C)NC(=O)N(C)C3CCN(C)CC3)c(Cl)c2Cl)c1` (stereo not shown) [Compound H0714, 3-(1-(2,3-dichloro-4-(5-(2-methoxyethyl)pyridin-3-yl)phenyl)ethyl)-1-methyl-1-(1-methylpiperidin-4-yl)urea], the half-inhibitory concentration (IC50) on GHSR1a [1] is 453 nM. For the same compound, at GHSR1a [2], the EC50 is over 30000 nM.
Regarding `CCc1cncc(-c2ccc(C(C)NC(=O)N(C)C3CCN(C)CC3)c(Cl)c2Cl)c1` (stereo not shown) [Compound H0715, 3-(1-(2,3-dichloro-4-(5-ethylpyridin-3-yl)phenyl)ethyl)-1-methyl-1-(1-methylpiperidin-4-yl)urea], the IC50 on GHSR1a [1] was 57 nM. On GHSR1a [2], the concentration giving a half-maximal response (EC50) stood at 42 nM and the Emax is listed as 2479.
As for `CC(NC(=O)N(C)C1CCN(C)CC1)c1ccc(-c2cncc(-c3cccs3)c2)c(Cl)c1Cl` (stereo not shown) [Compound H0717, 3-(1-(2,3-dichloro-4-(5-(thiophen-2-yl)pyridin-3-yl)phenyl)ethyl)-1-methyl-1-(1-methylpiperidin-4-yl)urea], the half-inhibitory concentration (IC50) on GHSR1a [1] turned out to be 396 nM. In addition, at GHSR1a [2], the half-maximal effective concentration (EC50) is over 30000 nM.
Consider `CC(NC(=O)N(C)C1CCN(C)CC1)c1ccc(-c2cncc(C3CCCC3)c2)c(Cl)c1Cl` (stereo not shown) [Compound H0718, 3-(1-(2,3-dichloro-4-(5-cyclopentylpyridin-3-yl)phenyl)ethyl)-1-methyl-1-(1-methylpiperidin-4-yl)urea], for which the concentration for half-maximal inhibition (IC50) at GHSR1a [1] came to 499 nM. On GHSR1a [2], the half-maximal effective concentration (EC50) was over 30000 nM.
The matching figures for `CC(NC(=O)N(C)C1CCN(C)CC1)c1ccc(-c2cncc(N3CCCC3)c2)c(Cl)c1Cl` (stereo not shown) [Compound H0719, 3-(1-(2,3-dichloro-4-(5-(pyrrolidin-1-yl)pyridin-3-yl)phenyl)ethyl)-1-methyl-1-(1-methylpiperidin-4-yl)urea]: 780 nM and over 30000 nM.
Turning to `CC(NC(=O)N(C)C1CCN(C)CC1)c1ccc(-c2ccc(C(=O)N(C)C)s2)c(Cl)c1Cl` (stereo not shown) [Compound H0726, 5-(2,3-dichloro-4-(1-(3-methyl-3-(1-methylpiperidin-4-yl)ureido)ethyl)phenyl)-N,N-dimethylthiophene-2-carboxamide], the IC50 at GHSR1a [1] stood at 456 nM. At GHSR1a [2], the EC50 is over 30000 nM.
The matching figures for `CN1CCC(N(C)C(=O)NC2(c3ccc(-c4cncnc4)c(Cl)c3Cl)CCOCC2)CC1` [Compound H0727, 3-(4-(2,3-dichloro-4-(pyrimidin-5-yl)phenyl)tetrahydro-2H-pyran-4-yl)-1-methyl-1-(1-methylpiperidin-4-yl)urea]: 3600 nM and over 30000 nM.
As for `CC(NC(=O)N(C)C1CCN(C)CC1)c1ccc(-c2cccnn2)c(Cl)c1Cl` (stereo not shown) [Compound H0729, 3-(1-(2,3-dichloro-4-(pyridazin-3-yl)phenyl)ethyl)-1-methyl-1-(1-methylpiperidin-4-yl)urea], at GHSR1a [1], the IC50 is 100 nM. Also, at GHSR1a [2], the EC50 was 95 nM and the Emax stood at 2818.
As to `CC(O)C#Cc1ccc(C(C)NC(=O)N(C)C2CCN(C)CC2)c(Cl)c1Cl` (stereo not shown) [Compound H0733, 3-(1-(2,3-dichloro-4-(3-hydroxybut-1-yn-1-yl)phenyl)ethyl)-1-methyl-1-(1-methylpiperidin-4-yl)urea], the half-inhibitory concentration (IC50) at GHSR1a [1] was found to be 95 nM. Besides, at GHSR1a [2], the EC50 is over 30000 nM.
For the compound `CC(NC(=O)N(C)C1CCN(C)CC1)c1ccc(C#Cc2ccccn2)c(Cl)c1Cl` (stereo not shown) [Compound H0734, 3-(1-(2,3-dichloro-4-(pyridin-2-ylethynyl)phenyl)ethyl)-1-methyl-1-(1-methylpiperidin-4-yl)urea], the 50% inhibitory concentration (IC50) at GHSR1a [1] is 202 nM. Also, on GHSR1a [2], the EC50 was over 30000 nM.
On to `CC(NC(=O)N(C)C1CCN(C)CC1)c1ccc(-c2cncc(-c3ncccn3)c2)c(Cl)c1Cl` (stereo not shown) [Compound H0735, 3-(1-(2,3-dichloro-4-(5-(pyrimidin-2-yl)pyridin-3-yl)phenyl)ethyl)-1-methyl-1-(1-methylpiperidin-4-yl)urea], for which the half-maximal inhibitory concentration (IC50) at GHSR1a [1] worked out at 209 nM. For the same compound, the concentration giving a half-maximal response (EC50) at GHSR1a [2] is over 30000 nM.
For `COc1cncc(-c2ccc(C(C)NC(=O)N(C)C3CCN(C)CC3)c(Cl)c2Cl)n1` (stereo not shown) [Compound H0738, 3-(1-(2,3-dichloro-4-(6-methoxypyrazin-2-yl)phenyl)ethyl)-1-methyl-1-(1-methylpiperidin-4-yl)urea] the same measures were 696 nM and over 30000 nM.
Take `C#Cc1ccc(C(CC2CC2)NC(=O)N(OC)C2CCN(C)CC2)c(Cl)c1Cl` (stereo not shown) [Compound H0740, 3-(2-cyclopropyl-1-(2,3-dichloro-4-ethynylphenyl)ethyl)-1-methoxy-1-(1-methylpiperidin-4-yl)urea]: at GHSR1a [1], the IC50 was found to be 7 nM. Moreover, at GHSR1a [2], the EC50 came to 1.5 nM and the Emax amounted to 3620.
For the compound `CON(C(=O)NC(CC1CC1)c1ccc(-c2cnccn2)c(Cl)c1Cl)C1CCN(C)CC1` (stereo not shown) [Compound H0741, 3-(2-cyclopropyl-1-(2,3-dichloro-4-(pyrazin-2-yl)phenyl)ethyl)-1-methoxy-1-(1-methylpiperidin-4-yl)urea], the IC50 at GHSR1a [1] came out at 15 nM. The EC50 on GHSR1a [2] is over 30000 nM.
With `C#Cc1ccc(C(C)NC(=O)N(OC)C2CCN(C)CC2)c(Cl)c1Cl` (stereo not shown) [Compound H0742, 3-(1-(2,3-dichloro-4-ethynylphenyl)ethyl)-1-methoxy-1-(1-methylpiperidin-4-yl)urea], the IC50 on GHSR1a [1] was 54 nM. For the same compound, on GHSR1a [2], the 50% effective concentration (EC50) is over 30000 nM.
The matching figures for `CON(C(=O)NC(C)c1ccc(-c2cnccn2)c(Cl)c1Cl)C1CCN(C)CC1` (stereo not shown) [Compound H0743, 3-(1-(2,3-dichloro-4-(pyrazin-2-yl)phenyl)ethyl)-1-methoxy-1-(1-methylpiperidin-4-yl)urea]: 94 nM and over 30000 nM.
Regarding `C#Cc1ccc(C(CC2CC2)NC(=O)N(OCC)C2CCN(C)CC2)c(Cl)c1Cl` (stereo not shown) [Compound H0744, 3-(2-cyclopropyl-1-(2,3-dichloro-4-ethynylphenyl)ethyl)-1-ethoxy-1-(1-methylpiperidin-4-yl)urea], the IC50 at GHSR1a [1] was determined as 33 nM. Further, at GHSR1a [2], the half-maximal effective concentration (EC50) was 45 nM and the Emax is listed as 3536.
As to `C#Cc1ccc(C(C)NC(=O)N(O)C2CCN(C)CC2)c(Cl)c1Cl` (stereo not shown) [Compound H0745, 3-(1-(2,3-dichloro-4-ethynylphenyl)ethyl)-1-hydroxy-1-(1-methylpiperidin-4-yl)urea], at GHSR1a [1], the IC50 came to 57 nM. On GHSR1a [2], the EC50 was determined as 97 nM and the Emax stood at 2391.
In the case of `CC(NC(=O)N(C)C1CCN(C)CC1)c1ccc(-c2cncc(-c3ccoc3)c2)c(Cl)c1Cl` (stereo not shown) [Compound H0746, 3-(1-(2,3-dichloro-4-(5-(furan-3-yl)pyridin-3-yl)phenyl)ethyl)-1-methyl-1-(1-methylpiperidin-4-yl)urea], on GHSR1a [1], the half-maximal inhibitory concentration (IC50) worked out at 216 nM. Besides, the EC50 at GHSR1a [2] is over 30000 nM.
As for `CC(NC(=O)N(C)C1CCN(C)CC1)c1ccc(-c2cncc(-c3ccsc3)c2)c(Cl)c1Cl` (stereo not shown) [Compound H0747, 3-(1-(2,3-dichloro-4-(5-(thiophen-3-yl)pyridin-3-yl)phenyl)ethyl)-1-methyl-1-(1-methylpiperidin-4-yl)urea], the concentration for half-maximal inhibition (IC50) at GHSR1a [1] was 84 nM. Besides, the EC50 on GHSR1a [2] is over 30000 nM.
With `CC(NC(=O)N(C)C1CCN(C)CC1)c1ccc(-c2cncc(-c3cnn(C)c3)c2)c(Cl)c1Cl` (stereo not shown) [Compound H0748, 3-(1-(2,3-dichloro-4-(5-(1-methyl-1H-pyrazol-4-yl)pyridin-3-yl)phenyl)ethyl)-1-methyl-1-(1-methylpiperidin-4-yl)urea], the concentration for half-maximal inhibition (IC50) on GHSR1a [1] worked out at 554 nM. The EC50 on GHSR1a [2] was over 30000 nM.
On to `C#Cc1ccc(C(C)NC(=O)N(OCC)C2CCN(C)CC2)c(Cl)c1Cl` (stereo not shown) [Compound H0749, 3-(1-(2,3-dichloro-4-ethynylphenyl)ethyl)-1-ethoxy-1-(1-methylpiperidin-4-yl)urea], for which, on GHSR1a [1], the concentration for half-maximal inhibition (IC50) stood at 111 nM. Also, at GHSR1a [2], the concentration giving a half-maximal response (EC50) came to 397 nM and the Emax is given as 1554.
Turning to `CCON(C(=O)NC(C)c1ccc(-c2cnccn2)c(Cl)c1Cl)C1CCN(C)CC1` (stereo not shown) [Compound H0750, 3-(1-(2,3-dichloro-4-(pyrazin-2-yl)phenyl)ethyl)-1-ethoxy-1-(1-methylpiperidin-4-yl)urea], the IC50 at GHSR1a [1] was determined as 177 nM. For the same compound, the 50% effective concentration (EC50) on GHSR1a [2] was over 30000 nM.
As for `CCON(C(=O)NC(CC1CC1)c1ccc(-c2cnccn2)c(Cl)c1Cl)C1CCN(C)CC1` (stereo not shown) [Compound H0752, 3-(2-cyclopropyl-1-(2,3-dichloro-4-(pyrazin-2-yl)phenyl)ethyl)-1-ethoxy-1-(1-methylpiperidin-4-yl)urea], the IC50 at GHSR1a [1] amounted to 100 nM. On GHSR1a [2], the EC50 is over 30000 nM.
As to `CC(NC(=O)N(C)C1CCN(C)CC1)c1ccc(C#Cc2cncnc2)c(Cl)c1Cl` (stereo not shown) [Compound H0753, 3-(1-(2,3-dichloro-4-(pyrimidin-5-ylethynyl)phenyl)ethyl)-1-methyl-1-(1-methylpiperidin-4-yl)urea], the half-inhibitory concentration (IC50) at GHSR1a [1] came out at 60 nM. On GHSR1a [2], the concentration giving a half-maximal response (EC50) is over 30000 nM.
For the compound `CC(NC(=O)N(C)C1CCN(C)CC1)c1ccc(C#CCO)c(Cl)c1Cl` (stereo not shown) [Compound H0755, 3-(1-(2,3-dichloro-4-(3-hydroxyprop-1-yn-1-yl)phenyl)ethyl)-1-methyl-1-(1-methylpiperidin-4-yl)urea], the half-maximal inhibitory concentration (IC50) at GHSR1a [1] is 12 nM. On GHSR1a [2], the EC50 was found to be 10 nM and the Emax amounted to 2196.
`CC(NC(=O)N(O)C1CCN(C)CC1)c1ccc(-c2cnccn2)c(Cl)c1Cl` (stereo not shown) [Compound H0756, 3-(1-(2,3-dichloro-4-(pyrazin-2-yl)phenyl)ethyl)-1-hydroxy-1-(1-methylpiperidin-4-yl)urea]: the concentration for half-maximal inhibition (IC50) at GHSR1a [1] was 13 nM. Further, at GHSR1a [2], the concentration giving a half-maximal response (EC50) is 13 nM and the Emax is reported as 1729.
Consider `CCOC(C#Cc1ccc(C(C)NC(=O)N(C)C2CCN(C)CC2)c(Cl)c1Cl)OCC` (stereo not shown) [Compound H0757, 3-(1-(2,3-dichloro-4-(3,3-diethoxyprop-1-yn-1-yl)phenyl)ethyl)-1-methyl-1-(1-methylpiperidin-4-yl)urea], for which, at GHSR1a [1], the IC50 turned out to be 159 nM. On GHSR1a [2], the EC50 was 654 nM and the Emax stood at 2704.
Regarding `CC(NC(=O)N(C)C1CCN(C)CC1)c1ccc(-c2cnc(C(N)=O)cn2)c(Cl)c1Cl` (stereo not shown) [Compound H0760], the half-maximal inhibitory concentration (IC50) on GHSR1a [1] is 6200 nM. For the same compound, the EC50 at GHSR1a [2] is over 30000 nM.

The values are drawn from US9546157B2, “Asymmetric piperidinyl-substituted ureas as medicines” (Helsinn Healthcare SA, priority 2014, dated 2017).
